Here are results for one molecule from publication PMC9729826, “Hypoaminoacidemia underpins glucagon-mediated energy expenditure and weight loss” (Cell Reports Medicine, 2022).

What all share (format): in vivo, mouse
Assay [1] relates to lean C57BL/6 mice. Nature of the assay: Hepatic gene expression 24 h after a single dose in lean mice. Conditions: 20 nmol/kg single s.c. dose, liver at 24 h, qPCR, n = 4/group. The method, then: Twelve weight-matched 12-week-old lean C57BL/6 mice were fasted for 2 h prior to a single intraperitoneal injection of 10 nmol/kg dose of G108 diluted in sterile HPLC water (pH > 7), or vehicle control alone. Tail venesection was performed at baseline, 15, 30, 60 and 120 min and blood glucose measured using a handheld GlucoRx meter. For hepatic carbohydrate and amino acid metabolism gene expression analysis, weight-matched 12-week-old lean C57BL/6 mice were subcutaneously administered with 20 nmol/kg G108 diluted in sterile HPLC water (pH > 7), or vehicle control via subcutaneous injection at 9 am (N = 8). All animals had ad libitum access to RM1 diet and water. Liver tissue was dissected at 24 h and stored at −80°C prior to hepatic gene expression analysis.
RNA was extracted from liver, muscle and BAT tissue using 1 mL TRIzol added to samples prior to homogenisation within a mechanical homogeniser for 2–3 min. Chloroform was added to each individual sample prior to gentle shaking and centrifugation at 16000 × g for 15 min. […] RNA was quantified in addition to quality assessed using a NanoDrop spectrophotometer and 1 μg of RNA was then used for the synthesis of cDNA using the iScript cDNA synthesis Kit (Bio-Rad). Quantitative polymerase chain reaction (qPCR) was then undertaken using the SYBR-Green method using KiCqStart SYBR Green primers (Merck).
Background: Real-time PCR tracks product formation cycle by cycle.

Assay [2] deals with lean C57BL/6 mice. Nature of the assay: Chronic low-dose (5 nmol/kg) G108 study in lean mice. The conditions noted are these: 5 nmol/kg s.c. daily. The method, then: For the low-dose G108 (5 nmol/kg) study, C57BL/6 mice matched for weight and age (14-week-old, N = 14) were single housed and split into two treatment groups (N = 7/group). All mice were subcutaneously administered with the allocated treatment daily at 9 am for 21 days. Mice were administered with vehicle control (HPLC water) or 5 nmol/kg G108 (diluted in sterile HPLC water). All mice had ad libitum access to a standard protein diet containing 20 kcal% protein (diet D11112201) (Table S2). Food intake and body weight were measured daily prior to treatment each day. EchoMRI analysis was carried out at baseline and days 7, 14 and 21. Tail venesection was carried out on day 7 of study, pre- and 4 h post treatment dose. Blood samples were immediately transferred on ice, centrifuged at 2800 × g for 10 min prior to plasma total amino acid analysis. Forelimb grip strength testing was performed at baseline, day 14 and day 21. On day 21, following a 4 h fast, mice were culled, and the following muscle groups dissected and weighed: quadriceps, gastrocnemius, soleus, tibialis anterior, extensor digitorum longus.
Food intake was measured daily using a dedicated weighing scale and topped up accordingly. Body weight was recorded at 9 am daily or every 48 h using the same weighing scale. Body composition was measured using an EchoMRI analyser at various timepoints during chronic studies. Body composition measurements were taken on the same time of day to reduce intra-animal variability. Animals were placed in a transparent cylindrical Perspex tube and both ends secured with Perspex clips. The tubes containing the animal was then carefully placed into the MRI machine (EchoMRI −100H analyser, EchoMRI). Each scan lasted approximately 90 s where lean mass and fat mass were recorded in grams. Following the scan, the mice were removed from the Perspex tube and returned to their respective cages.
A grip strength meter (Bioseb, France) was used to measure grip strength. […] The maximum force, measured in g was recorded. Four consecutive measurements were made with a 1 min rest interval. An average of measurements was taken for each timepoint prior to subsequent analysis.
(§1) Plasma total amino acids were measured using fluorometric-based ELISA kits as described (MAK002, Sigma-Aldrich, Ab65347, Abcam). Plasma FGF21 was measured using a fluorescent based ELISA kit (ab229382, Abcam). Plasma triglyceride, cholesterol and leptin were measured using ELISA kits (ab65336, ab65390, ab199082, Abcam). Individual amino acids were measured using Gas Chromatography/Mass Spectrometry (WellChild laboratory, Evelina Children’s Hospital, St Thomas’s Hospital, London).

Assay [3] relates to C57BL/6 mice. Description: Single-dose G108 EE and plasma amino acid study in metabolic cages. Conditions: for plasma total amino acids after a single injection / energy expenditure after a single injection: mice on SP diet. The method, then:
Lean 10-week-old C57BL/6 mice (N = 20) were provided ad libitum a 60 kcal% high fat diet (diet D12492, Table S2) for 10 days. They were then switched to either a standard protein high fat diet (D08091803) or a high protein high fat diet (D08091801) (N = 10/group) for 1 week prior to commencing the study. All mice were then placed into metabolic cages, individually housed, and allowed to acclimatise for 24 h. On day 2, baseline metabolic readings were obtained prior to single dose administration of 7.5 nmol/kg G108 on day 3 at 9 am. Metabolic readings were subsequently obtained over the following 48 h prior to single dose administration of 20 nmol/kg G108 on day 5. On day 8, all mice were removed from the metabolic cages and returned to their home cages. A parallel study was then carried out whereby venous blood samples were collected at baseline and daily following single dosing with either 7.5 nmol/kg or 20 nmol/kg G018. Blood samples were transferred on ice immediately for centrifugation as previously described. Samples were stored at −80°C prior to measurement of plasma total amino acids.
To measure energy expenditure, DIO mice were placed into a Comprehensive Laboratory Animal Monitoring System (CLAMS, Columbus instruments, Columbus, US). Measurement of oxygen consumption and carbon dioxide production was taken at 20 min intervals. Food intake was also measured electronically without the need to remove food. Each cohort of mice were placed into the CLAMS system with daily weighing of body weight prior to administration of the allocated treatment at 9 am. Following administration of treatment, mice were placed back into the metabolic cages with ad libitum access to their allocated diet. For studies with the low amino acid (LAA) diet in metabolic cages, animals were not removed from the metabolic cages until the end of the experiment and had ad libitum access to either standard protein or low amino acid diets. Feed efficiency was calculated as mg body weight change per kJ consumed.
as §1

Starred links: 1 amine or outer side, 2 acyl side, 3 side chain; linkers in the order of their positions; H or OH if unused. Non-standard residues stand in square brackets, D forms with d. Residues, ends and D or L forms follow the SMILES beside them. Groups on a side chain read outwards from the residue. *: point of attachment. C18 diacid = O=C(O)CCCCCCCCCCCCCCCCC(=O)*; γGlu = O=C(O)[C@H](CCC(=O)[*:2])N[*:1]; Aib = CC(C)(N)C(=O)O

Consider `CC[C@H](C)[C@H](NC(=O)[C@H](Cc1ccccc1)NC(=O)[C@H](CCC(=O)O)NC(=O)[C@H](CCC(N)=O)NC(=O)[C@H](C)NC(=O)[C@H](CCCNC(=N)N)NC(=O)[C@H](CCCCN)NC(=O)[C@H](C)NC(=O)[C@H](CC(=O)O)NC(=O)[C@H](CC(C)C)NC(=O)[C@H](Cc1ccc(O)cc1)NC(=O)[C@H](CCCNC(=N)N)NC(=O)[C@H](CO)NC(=O)[C@H](Cc1ccc(O)cc1)NC(=O)[C@H](CC(=O)O)NC(=O)[C@H](CO)NC(=O)[C@@H](NC(=O)[C@H](Cc1ccccc1)NC(=O)[C@@H](NC(=O)CNC(=O)[C@H](Cc1c[nH]cn1)NC(=O)C(C)(C)NC(=O)[C@@H](N)Cc1c[nH]cn1)[C@@H](C)O)[C@@H](C)O)C(=O)N[C@@H](CCC(=O)O)C(=O)N[C@@H](Cc1c[nH]c2ccccc12)C(=O)N[C@@H](CC(C)C)C(=O)N[C@@H](CC(C)C)C(=O)N[C@@H](CCC(N)=O)C(=O)N[C@@H](CO)C(=O)N[C@@H](Cc1c[nH]cn1)C(=O)N[C@@H](Cc1c[nH]cn1)C(=O)N[C@@H](CCC(N)=O)C(=O)N[C@@H](Cc1c[nH]cn1)C(=O)N[C@@H](Cc1c[nH]cn1)C(=O)N1CCC[C@H]1C(=O)N[C@@H](CO)C(=O)N1CCC[C@H]1C(=O)N1CCC[C@H]1C(=O)N1CCC[C@H]1C(=O)N[C@@H](CCCCNC(=O)[C@H](CC(N)=O)NC(=O)CC[C@H](NC(=O)CCCCCCCCCCCCCCCCC(=O)O)C(=O)O)C(N)=O` [Peptide G108] (H-H[Aib]HGTFTSDYSRYLDAKRAQEFIEWLLQSHHQHHPSPPPK([Asn-γGlu-C18 diacid])-NH2; N-terminus and C-terminus assumed), for which, in assay [1], the “expression of hepatic amino acid catabolism (urea cycle) genes” value was “increased the expression of a number of genes involved in amino acid catabolism” and the “expression of hepatic gluconeogenic enzymes” value is on record as “increased the expression of hepatic gluconeogenic enzymes”. Also, in assay [2] (21 days, n = 7/group), the “body composition (lean mass, EchoMRI)” value is on record as “reduced lean mass” and the “body weight gain compared with vehicle” value is “prevented weight gain”. Moreover, in assay [2] (day 7, n = 7/group), the “plasma total amino acids” value is “sustained reduction in plasma amino acids”. Further, in assay [2] (day 21, n = 7/group), the “weight of the quadriceps and gastrocnemius muscles” value is “reduced”. Further, the forelimb grip strength entry in assay [2] (days 14 and 21, n = 7/group) is on record as “reduced”. The “plasma total amino acids after a single injection” value in assay [3] (single 7.5 nmol/kg dose, n = 10/group) was “transient reduction in plasma amino acids”. Further, the “energy expenditure after a single injection” value in assay [3] (single 7.5 nmol/kg dose, up to 48 h, n = 10/group) is listed as “trend toward increased EE”. For the same molecule, the “plasma total amino acids after a single injection” value in assay [3] (single 20 nmol/kg dose, n = 9-10/group) is recorded as “sustained reduction in plasma amino acids”. The “energy expenditure after a single injection” value in assay [3] (single 20 nmol/kg dose, up to 72 h, n = 9-10/group) is “significantly increased EE response”. Also, the “hypoaminoacidemia and EE in mice fed the HP diet” value in assay [3] (single 7.5 and 20 nmol/kg doses, HP diet) was “protected against G108-stimulated hypoaminoacidemia and EE at both doses”.
